# From patent publication US8669254B2, “Pyridine, pyridazine, pyrimidine or pyrazine carboxamides as HDL-cholesterol raising agents” (Hoffman-La Roche Inc., priority 2010, dated 2014)
# Like-named read-outs stand apart in the source and are kept apart here.
# What was measured:
# [1] = tested on: ABCA1 protein; test: Detection of upregulation of ABCA1 protein in cells (ApoA-I binding, high content image analysis); format: cell-based; conditions: THP-1 macrophage cells; for % increase of ABCA1 at 3 μM: compound at 3 μM, 24 hrs; for EC50: ABCA1 protein detection assay
# Method: The ability of compounds of the invention to increase the level of ABCA1 protein is determined in replicate cultures of THP-1 macrophage cells in 96-well microplates. Cells are plated at an initial density of 100,000 cells/well in 100 μl medium and differentiated to adherent macrophages with the addition of PMA (100 nM) for 68 hrs in 10% fetal bovine serum, 3 μl/L of b-mercaptoethanol, RPMI-1640 medium. Then, cells are incubated with RPMI-1640 medium containing 1% FCS, 25 μg/ml acetylated LDL, for 24 hours at 37°. Following incubation with acetylated LDL, cells are washed twice with 50 μl PBS and incubated with 100 μl of RPMI-1640 medium containing the compound of interest solubilized in DMSO for an additional 24 hrs. The final DMSO concentration in presence of cells is maintained at 0.5%. ApoA-I binding assay using High Content Image Analysis is initiated by replacing with fresh medium, RPMI without Phenol Red, 0.2% BSA containing AlexaFluor®647 labeled ApoA-I for 2 h/37° C./5% CO2. Then, cells are fixed with 4% Formaldehyde in PBS (15 min, RT). Following Nuclei are stained with Hoechst solution (3 μM PBS) and Cytoplasm with Cell Mask Blue (2 μg/ml PBS), 15 min, RT. Finally the stained cells are fixed with a second round of formaldehyde treatment. Fixed stained cells are washed and kept in PBS at 4° C. and can be read immediately until one month after preparation.
# The Alexa Fluor 647-labeled Apolipoprotein A-I (20 nM) was prepared as follows: Human recombinant Apolipoprotein A-I (ApoA-I) was exchanged to a buffer of 0.02 M NaHCO3 at pH 8.2 on an NAP desalting column (GE Healthcare) and brought to a concentration to 40 μM (1.13 mg/ml) by adjustment with the same buffer. The ApoA-I was fluorescently labeled by incubation with Alexa Fluor carboxylic acid succimidyl ester (Alexa Fluor 647, Invitrogen A-20006) at a 2:1 molar ratio (Alexa to ApoA-I) for 1 h under shaking at RT). The remaining unconjugated label was removed by buffer exchange to 0.02M NaHCO3 at pH 8.2.
# Imaging and data collection were performed on an OPERA confocal microplate imaging reader using a 20× water immersion objective and UV360 or 405 laser to identify the cell nuclei and a 635 laser to identify the fluorescent ApoA-I. Eight fields of view are captured per well. Image capture and analysis was performed with the Acapella software. Background fluorescence detected in control wells without ApoA-I was subtracted.
# Using XLfit3 program (ID Business Solutions Ltd. UK), the model 205 for Dose Response One Site is used to calculate the EC50 values. […] Particularly, the compounds of the present invention have EC50 values in a range of 0.1 μM to 3 μM.
# [2] = biological target: T1, human CB1 receptor (Homo sapiens, UniProt P21554); test: CB1 receptor affinity ([3H]-CP-55,940 displacement); format: binding; conditions: read-out: CB1 receptor affinity [% inhibition @ 10 μM]
# T1 construct: expressed in transfected cells; host or cells: human embryonic kidney (HEK) cells, Semliki Forest Virus system, membrane preparation
# Method: (§1) The affinity of the compounds of the invention for cannabinoid receptors was determined using membrane preparations of human embryonic kidney (HEK) cells in which the human CB1 receptor is transiently transfected using a Semliki Forest Virus system in conjunction with [3H]-CP-55,940 as radioligand. After incubation of freshly prepared cell membrane preparation with the [^3H]-ligand, with or without addition of compounds of the invention, separation of bound and free ligand was performed by filtration over glass fiber filters. Radioactivity on the filter was measured by scintillation counting.
# (§2) The ability of the compounds to displace the radioligand [^3H]-CP-55,940 was measured at a concentration of 10 μM and values provided as [% inhibition @ 10 μM] both for the CB 1 and CB2 receptor assay, The lower % inhibition is, the lower the likelihood of side effects based on CB1 or CB2 receptor inhibition is.
# [3] = biological target: T2, human CB2 receptor (Homo sapiens, UniProt P34972); test: CB2 receptor affinity ([3H]-CP-55,940 displacement); format: binding; conditions: HEK cell membranes, radioligand [3H]-CP-55,940
# T2 construct: expressed in transfected cells; host or cells: human embryonic kidney (HEK) cells, Semliki Forest Virus system, membrane preparation
# Method: as §1, with “cannabinoid CB2” for “cannabinoid”, “CB2” for “CB1”, “[^3H]-CP-55,940” for “[3H]-CP-55,940”
# as §2
# [4] = 10 μM, HEK cell membranes, radioligand [3H]-CP-55,940
# T1 sequence (P21554 whole entry): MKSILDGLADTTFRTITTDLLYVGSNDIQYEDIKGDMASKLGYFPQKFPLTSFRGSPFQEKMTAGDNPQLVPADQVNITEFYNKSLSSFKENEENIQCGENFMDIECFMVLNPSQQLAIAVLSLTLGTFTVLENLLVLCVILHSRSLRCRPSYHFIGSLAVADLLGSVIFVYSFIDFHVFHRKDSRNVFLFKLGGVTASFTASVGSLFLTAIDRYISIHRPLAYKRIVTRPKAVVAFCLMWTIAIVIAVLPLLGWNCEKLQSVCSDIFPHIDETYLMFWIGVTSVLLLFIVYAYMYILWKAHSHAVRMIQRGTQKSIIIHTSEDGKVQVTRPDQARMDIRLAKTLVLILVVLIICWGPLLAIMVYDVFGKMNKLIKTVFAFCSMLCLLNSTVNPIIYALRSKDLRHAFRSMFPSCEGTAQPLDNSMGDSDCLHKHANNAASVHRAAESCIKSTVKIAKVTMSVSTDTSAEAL
# T2 sequence (P34972 whole entry): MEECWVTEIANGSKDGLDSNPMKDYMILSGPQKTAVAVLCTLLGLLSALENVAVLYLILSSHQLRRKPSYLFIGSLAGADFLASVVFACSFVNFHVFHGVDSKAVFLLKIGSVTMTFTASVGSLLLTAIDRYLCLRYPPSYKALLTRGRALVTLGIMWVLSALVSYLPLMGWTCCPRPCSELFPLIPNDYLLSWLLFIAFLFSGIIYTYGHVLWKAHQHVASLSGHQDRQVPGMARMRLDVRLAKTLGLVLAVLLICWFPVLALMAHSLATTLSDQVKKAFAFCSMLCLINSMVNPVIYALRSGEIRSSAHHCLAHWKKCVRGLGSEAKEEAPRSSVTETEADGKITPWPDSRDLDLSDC
Compound,% increase of ABCA1 at 3 μM [1] [% @ 3 μM],"inhibition at 10 µM [2, 4] [%]",inhibition at 10 µM [3] [%],melting point [°C],EC50 [1] [nM],inhibition at 10 µM [2] [%]
"CO/N=C(/CNC(=O)c1cnc(OCC(F)(F)F)c(-c2ccc(Cl)c(Cl)c2)c1)C(F)(F)F [Example 15, 5-(3,4-Dichloro-phenyl)-6-(2,2,2-trifluoro-ethoxy)-N-{3,3,3-trifluoro-2-[(Z)-methoxyimino]-propyl}-nicotinamide]",50.5,32,23.2,124 to 126,,
"CO/N=C(/CNC(=O)c1ncc(OCC2CC2)c(-c2ccc(Cl)cc2)n1)C1CC1 [Example 20, 4-(4-chloro-phenyl)-5-cyclopropylmethoxy-pyrimidine-2-carboxylic acid {2-cyclopropyl-2-[(E)-methoxyimino]-ethyl}-amide]",87.03,28.8,71.7,,,
"CO/N=C(/CNC(=O)c1ccc(OCC(F)(F)F)c(-c2ccc(Cl)cc2)n1)C(F)(F)F [Example 21, 6-(4-Chloro-phenyl)-5-(2,2,2-trifluoro-ethoxy)-pyridine-2-carboxylic acid {3,3,3-trifluoro-2-[(Z)-methoxyimino]-propyl}-amide]",50,41,31,,,
"O=C(NC/C(=N/OCC(F)(F)F)C1CC1)c1cnc(OCC(F)(F)F)c(-c2ccc(Cl)c(Cl)c2)c1 [Example 22, N-{2-Cyclopropyl-2-[(E/Z)-2,2,2-trifluoro-ethoxyimino]-ethyl}-5-(3,4-dichloro-phenyl)-6-(2,2,2-trifluoro-ethoxy)-nicotinamide]",74,36,9,,,
"CO/N=C(/CNC(=O)c1cc(-c2ccc(Cl)c(Cl)c2)c(OCC(F)(F)F)nn1)C1CC1 [Example 23, (E)-N-(2-cyclopropyl-2-(methoxyimino)ethyl)-5-(3,4-dichlorophenyl)-6-(2,2,2-trifluoroethoxy)pyridazine-3-carboxamide]",88,-2,14,147 to 150,540,
"CO/N=C1\CCCC[C@@H]1NC(=O)c1cc(-c2ccc(Cl)c(Cl)c2)c(OCC(F)(F)F)nn1 [Example 24, 5-(3,4-Dichloro-phenyl)-6-(2,2,2-trifluoro-ethoxy)-pyridazine-3-carboxylic acid {(S)-2-[(E)-methoxyimino]-cyclohexyl}-amide]",85,22,31,106 to 109,,
"CO/N=C(/CNC(=O)c1cc(-c2ccc(Cl)cc2)c(O[C@@H](C)C(F)(F)F)nn1)C1CC1 [Example 25, (S,E)-5-(4-Chlorophenyl)-N-(2-cyclopropyl-2-(methoxyimino)ethyl)-6-(1,1,1-trifluoropropan-2-yloxy)pyridazine-3-carboxamide]",61,39,29,,,
"CO/N=C(/CNC(=O)c1cnc(O[C@@H](C)C(F)(F)F)c(-c2ccc(Cl)cc2)n1)C1CC1 [Example 26, (S,E)-6-(4-Chlorophenyl)-N-(2-cyclopropyl-2-(methoxyimino)ethyl)-5-(1,1,1-trifluoropropan-2-yloxy)pyrazine-2-carboxamide]",79,13,9,149 to 152,1120,
"CO/N=C1\CCCC[C@@H]1NC(=O)c1cnc(O[C@@H](C)C(F)(F)F)c(-c2ccc(Cl)cc2)n1 [Example 27, 6-(4-Chlorophenyl)-N-((S,E)-2-(methoxyimino)cyclohexyl)-5-((S)-1,1,1-trifluoropropan-2-yloxy)pyrazine-2-carboxamide]",65,21,21,120 to 123,,
"CO/N=C1\CCCC[C@@H]1NC(=O)c1ncc(O[C@@H](C)C(F)(F)F)c(-c2ccc(Cl)cc2)n1 [Example 28, 4-(4-Chlorophenyl)-N-((S,E)-2-(methoxyimino)cyclohexyl)-5-((S)-1,1,1-trifluoropropan-2-yloxy)pyrimidine-2-carboxamide]",86.5,34.4,18,180 to 182,780,
"CO/N=C1\CCCC[C@@H]1NC(=O)c1cc(-c2ccc(Cl)cc2)c(O[C@@H](C)C(F)(F)F)cn1 [Example 29, 4-(4-Chlorophenyl)-N-((S,E)-2-(methoxyimino)cyclohexyl)-5-((S)-1,1,1-trifluoropropan-2-yloxy)picolinamide]",53.4,35.5,33,123 to 125,,
"CO/N=C1\CCCC[C@@H]1NC(=O)c1cnc(O[C@@H](C)C(F)(F)F)c(-c2ccc(Cl)cc2)c1 [Example 30, 5-(4-Chlorophenyl)-N-((S,E)-2-(methoxyimino)cyclohexyl)-6-((S)-1,1,1-trifluoropropan-2-yloxy)nicotinamide]",91.3,24.1,12.7,119 to 121,180,
"CO/N=C(/CNC(=O)c1cnc(O[C@@H](C)C(F)(F)F)c(-c2ccc(Cl)cc2)c1)C1CC1 [Example 31, 5-(4-Chloro-phenyl)-N-{2-cyclopropyl-2-[(E)-methoxyimino]-ethyl}-6-((S)-2,2,2-trifluoro-1-methyl-ethoxy)-nicotinamide]",74.5,,3.6,103 to 106,,39.3
"CO/N=C(/CNC(=O)c1cc(-c2ccc(Cl)cc2)c(OCC(F)(F)F)cn1)C1CC1 [Example 32, (E)-4-(4-chlorophenyl)-N-(2-cyclopropyl-2-(methoxyimino)ethyl)-5-(2,2,2-trifluoroethoxy)picolinamide]",53,15,29,,,
